Measured values: patent US8399468B2, “Octahydro-pyrrolo[3,4-B]pyrrole derivatives” (Abbott Laboratories, priority 2006, dated 2013)

Details: compared with the 2-{4′-[(3aR,6aR)-5-methylhexahydropyrrolo[3,4-b]pyrrol-1(2H)-yl]-1,1′-biphenyl-4-yl}pyridazin-3(2H)-one compound

**Q.** For `CN1C[C@H]2CCN(c3ccc(-c4ccc(-n5ncccc5=O)cc4)cc3)[C@H]2C1.O.O=C(O)C(O)C(O)C(=O)O` [L-tartrate monohydrate Form A salt, 2-{4′-[(3aR,6aR)-5-Methylhexahydropyrrolo[3,4-b]pyrrol-1(2H)-yl]-1,1′-biphenyl-4-yl}pyridazin-3(2H)-one L-tartrate monohydrate Form A], which relative oxidative stability is on record?
**A.** better relative oxidative stability
